Experimental findings from US11236106B2, “Cycloalkane-1,3-diamine derivative” (Daiichi Sankyo Company, Limited, priority 2018, dated 2022) are described below.

Each structure is given as a SMILES string. Structures can show the parent of a compound that is named as a salt. Where two headings read alike, the source gives them in different places.

In assay [1] the test system is K562 cells. Kind of assay: cells. Conditions: Homo sapiens, K562, 168 h, read-out: GI50, cell growth inhibitory activity, K562, day 7.
Description: (§1) RPMI1640 medium supplemented with 10% FBS was used as a culture medium for each cells (MV-4-11, MOLM-13 cells, human AML cells, K562 cells, human CML cells). […] The prepared drug-containing plate was stored at −30° C. until use, and thawed before use.
(§2) The suspension of each cells was prepared with 10% FBS RPMI1640 culture medium so as to be 1000 cells/mL (K562) or 10000 cells/mL (MV-4-11, MOLM-13), and seeded on the drug-containing plate (40 μL/well) (day 0). The cells were cultured for additional 3 or 7 days. ATP measurement reagent (CellTiter-Glo (registered trademark, Promega Corporation) 2.0 Assay, model number G9242, Promega Corporation) was added to each well at 10 μL/well, on the day of the drug addition (day 0) and 3 days (day 3) or 7 days (day 7) after the drug addition. After affixing a black sticker on the bottom surface, the mixture was stirred using a microplate mixing deaeration machine (model name, Weltornado FK-62, Sakaki Dengyo Co., Ltd.) (stirring conditions, revolution 9, rotation 7, time 12).
(§3) The cell growth of the drug-added group from day 0 to day 3 or day 7 was calculated as T/C %, when the cell growth of the drug-free group was considered as 100%.
The subject of assay [2] is MV-4-11 cells. Kind of assay: cells. The settings on record: Homo sapiens, MV4-11, 168 h, read-out: GI50, cell growth inhibitory activity, MV-4-11, day 7.
Description: as §1, §2, §3
Assay [3] concerns OCI-AML3 cells. The experiment in a line: cells. Conditions: Homo sapiens, OCI-AML-3, 168 h, read-out: GI50 (nM) Day 7.
Description: The cells were purchased from Deutsche Sammlung von Mikroorganismen und Zellkulturen GmbH (DSMZ). […] The prepared drug-containing plate was stored at −30° C. until use, and thawed before use.
The suspension of the cells was prepared with 10% FBS RPMI1640 culture medium so as to be 50000 cells/mL, and seeded on the drug-containing plate (40 μL/well) (day 0). The cells were cultured for additional 7 days. ATP measurement reagent (CellTiter-Glo (registered trademark, Promega Corporation) 2.0 Assay, model number G9242, Promega Corporation) was added to each well at 10 μL/well, on the day of the drug addition (day 0) and 7 days (day 7) after the drug addition. After affixing a black sticker on the bottom surface, the mixture was stirred using a microplate mixing deaeration machine (model name, Weltornado FK-62, Sakaki Dengyo Co., Ltd.) (stirring conditions, revolution 9, rotation 7, time 12).
The cell growth of the drug-added group from day 0 to day 7 was calculated as T/C %, when the cell growth of the drug-free group was considered as 100%. GI5o was calculated by GROWTH function (exponential regression) using two concentrations sandwiching the concentration (T/C %=50%) that suppresses cell growth by 50%, and T/C %.
The target of assay [4] is T1, menin and MLL (menin, Flag tagged; biotinylated MLL1 peptide 1-46aa) (Homo sapiens, UniProt O00255).
T1 sequence (O00255 1-610): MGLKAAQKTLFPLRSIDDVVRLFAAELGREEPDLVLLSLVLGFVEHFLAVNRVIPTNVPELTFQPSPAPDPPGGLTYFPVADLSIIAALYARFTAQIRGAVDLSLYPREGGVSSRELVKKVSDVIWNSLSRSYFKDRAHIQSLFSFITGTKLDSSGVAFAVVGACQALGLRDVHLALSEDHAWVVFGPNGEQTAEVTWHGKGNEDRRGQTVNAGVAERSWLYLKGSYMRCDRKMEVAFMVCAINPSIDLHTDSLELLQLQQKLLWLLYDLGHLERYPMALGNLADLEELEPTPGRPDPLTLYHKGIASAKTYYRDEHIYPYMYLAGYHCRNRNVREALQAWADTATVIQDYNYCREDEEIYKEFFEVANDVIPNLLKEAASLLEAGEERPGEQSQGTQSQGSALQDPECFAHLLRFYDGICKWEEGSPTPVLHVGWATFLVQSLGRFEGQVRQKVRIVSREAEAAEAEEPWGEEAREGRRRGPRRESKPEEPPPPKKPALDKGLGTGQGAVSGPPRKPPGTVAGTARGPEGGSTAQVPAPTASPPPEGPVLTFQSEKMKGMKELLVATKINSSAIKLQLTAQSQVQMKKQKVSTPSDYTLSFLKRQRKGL
Kind of assay: biochemical. The settings on record: IC50, binding inhibitory activity between menin and MLL, AlphaLISA; 1 nM menin, 10 nM biotinylated MLL1 peptide. In general terms: Alpha assays give light when donor and acceptor beads are brought close together.
Description: Then, the fluorescence signal by AlphaLISA (registered trademark, PerkinElmer Co., Ltd.) was measured using a plate reader (PerkinElmer Co., Ltd., EnVisionXcite).

The test system of assay [5] is K562 cells. Conditions: read-out: GI50, cell growth inhibitory activity, K562, day 7, cultured 7 days, assigned by order and values.
Description: as §1, §2, §3

In general, GI50 refers to the concentration giving 50% growth inhibition. The term IC50 denotes the midpoint of a concentration-inhibition curve. For `COc1nc(N(C)[C@H]2C[C@@H](NCc3ccc(-c4cc(OC)c(OC(F)F)nn4)cc3)C[C@H]2O)c2cc(CC(F)(F)F)sc2n1` [Example 119, (1R,2S,4R)-4-[({4-[6-(difluoromethoxy)-5-methoxypyridazin-3-yl]phenyl}methy)amino]-2-{[2-methoxy-6-(2,2,2-trifluoroethyl)thieno[2,3-d]pyrimidin-4-yl](methyl)amino}cyclopentan-1-ol hydrochloride], the GI50 in assay [1] stood at 859 nM; in assay [2], 15.7 nM; in assay [3], 33 nM. Besides, the IC50 in assay [4] was 0.7 nM.

In the case of `COc1nc(N(C)C2CC(NCC3CCC(c4cc(OC)c(OC)nn4)CC3)CC2O)c2cc(CC(F)(F)F)sc2n1` (single isomer, unassigned) [Example 128B, Hydrochloride], in assay [5], the concentration for 50% growth inhibition (GI50) was greater than 5000 nM. Moreover, the IC50 in assay [4] turned out to be 6.6 nM.
